According to US20240216369A1, “THE USE OF A SPLICING MODULATOR FOR A TREATMENT SLOWING PROGRESSION OF HUNTINGTON'S DISEASE” (Novartis AG, priority 2019, published 2024):

What was measured:
mHTT = test: Mutant and total HTT multiplex HTRF assay in Q48 HTT human embryonic stem cell line: mHTT; format: cell-based; details: Q48 HTT hESC, 48 hours
Protocol: (§1) The multiplex assay is performed in human embryonic stem cells (hESCs) which have been derived by Genea Biocells from human blastocysts of HD donors. Cells are plated at a density of 10,000 cells/well into 384-well collagen coated plates and left to adhere for 24 hours, compounds 1 to 82 are then added to cells and incubated for 48 hours (37° C., 5% CO2), cells are then lysed and the contents split into a black 384-well plate.
(§2) The black plates have a combination of HTRF labeled monoclonal antibodies added which recognize discrete areas of the HTT protein, the 2B7-Tb “donor” antibody (0.2 ng/well) recognizes a sequence at the N-terminus of the protein, an MW1-Alexa488 “acceptor 1” antibody (30 ng/well) recognizes an area in the polyQ region, whereas a MAB2166-d2 “acceptor 2” antibody (6 ng/well) recognizes a sequence beyond the polyQ region. The 2B7 antibody was obtained from Coriell (CH02024), the MW1 antibody from Millipore (MABN2427), and the MAB2166 antibody from Millipore (1HU-4C8).
(§3) These detection reagents are incubated with the cell lysate at room temperature for 4-6 hours before having their fluorescence quantified at 615 nm (donor) and 535 nm and 665 nm (acceptor 1 and 2 respectively). The donor/acceptor ratio between these signals indicates the relative quantities of mHTT and tHTT proteins. As shown in the Table 1, compounds 1 to 82 as described therein and in Table 2, had the following pIC50 values.

tHTT = test: Mutant and total HTT multiplex HTRF assay in Q48 HTT human embryonic stem cell line: tHTT; format: cell-based; details: Q48 HTT hESC, 48 hours
Protocol: as §1, §2, §3

| SMILES | Rating (based on mHTT potency) (mHTT) | mHTT pIC50 (mHTT) | tHTT pIC50 (tHTT) |
| --- | --- | --- | --- |
| CN(c1ccc(-c2ccc(-c3cn[nH]c3)cc2O)nn1)C1CC(C)(C)NC(C)(C)C1 [Compound 1, 2-(6-(methyl(2,2,6,6-tetramethylpiperidin-4-yl)amino)pyridazin-3-yl)-5-(1H-pyrazol-4-yl)phenol] | ***** (a pIC50 value above 7.5 is indicated by five stars (*****)) | 7.75 | 7.8065 |
| CN(c1ccc(-c2cc3c(=O)n(C)ccc3cc2O)nn1)C1CC(C)(C)NC(C)(C)C1 [Compound 2, 6-hydroxy-2-methyl-7-(6-(methyl(2,2,6,6-tetramethylpiperidin-4-yl)amino)pyridazin-3-yl)isoquinolin-1(2H)-one] | ***** (a pIC50 value above 7.5 is indicated by five stars (*****)) | 7.73 | 7.6555 |
| CN(c1ccc(-c2ccc(-c3cn[nH]c3)cc2O)nn1)[C@H]1C[C@]2(C)CC[C@](C)(C1)N2 [Compound 3, 2-(6-(((1R,5S)-1,5-dimethyl-8-azabicyclo[3.2.1]octan-3-yl)(methyl)amino)pyridazin-3-yl)-5-(1H-pyrazol-4-yl)phenol] | ***** (a pIC50 value above 7.5 is indicated by five stars (*****)) | 7.717 | 7.609 |
| CN(c1ccc(-c2ccc(-n3ccc(N)n3)cc2O)nn1)C1CC(C)(C)NC(C)(C)C1 [Compound 4, 5-(3-amino-1H-pyrazol-1-yl)-2-(6-(methyl(2,2,6,6-tetramethylpiperidin-4-yl)amino)pyridazin-3-yl)phenol] | ***** (a pIC50 value above 7.5 is indicated by five stars (*****)) | 7.6 | 7.5845 |
| CN(c1ccc(-c2ccc(-c3ccn(C)c(=O)c3)cc2O)nn1)C1CC(C)(C)NC(C)(C)C1 [Compound 5, 4-(3-hydroxy-4-(6-(methyl(2,2,6,6-tetramethylpiperidin-4-yl)amino)pyridazin-3-yl)phenyl)-1-methylpyridin-2(1H)-one] | ***** (a pIC50 value above 7.5 is indicated by five stars (*****)) | 7.591 | 7.5935 |
| CN(c1nnc(-c2ccc(-c3ccc(=O)n(C)c3)cc2O)s1)C1CC(C)(C)NC(C)(C)C1 [Compound 6, 5-(3-hydroxy-4-(5-(methyl(2,2,6,6-tetramethylpiperidin-4-yl)amino)-1,3,4-thiadiazol-2-yl)phenyl)-1-methylpyridin-2(1H)-one] | ***** (a pIC50 value above 7.5 is indicated by five stars (*****)) | 7.585 | 7.493 |
| CC1(C)CC(Oc2ccc(-c3c(O)cc(-c4cn[nH]c4)cc3F)nn2)CC(C)(C)N1 [Compound 7, 3-fluoro-5-(1H-pyrazol-4-yl)-2-(6-((2,2,6,6-tetramethylpiperidin-4-yl)oxy)pyridazin-3-yl)phenol] | ***** (a pIC50 value above 7.5 is indicated by five stars (*****)) | 7.5265 | 7.51 |
| CN(c1ccc(-c2ccc(-c3ccnc(O)c3)cc2O)nn1)C1CC(C)(C)NC(C)(C)C1 [Compound 8, 4-(3-hydroxy-4-(6-(methyl(2,2,6,6-tetramethylpiperidin-4-yl)amino)pyridazin-3-yl)phenyl)pyridin-2-ol] | **** (a pIC50 value between 7.0 and 7.5 is indicated by four stars (****)) | 7.4855 | 7.4435 |
| CN(c1nnc(-c2c(O)cc(-c3cn[nH]c3)cc2Cl)s1)C1CC(C)(C)NC(C)(C)C1 [Compound 9, 3-chloro-2-(5-(methyl(2,2,6,6-tetramethylpiperidin-4-yl)amino)-1,3,4-thiadiazol-2-yl)-5-(1H-pyrazol-4-yl)phenol] | **** (a pIC50 value between 7.0 and 7.5 is indicated by four stars (****)) | 7.4435 | 7.353 |
| Cc1cc2cc(-c3ccc(N(C)C4CC(C)(C)NC(C)(C)C4)nn3)c(O)cc2c(C#N)n1 [Compound 10, 7-hydroxy-3-methyl-6-(6-(methyl(2,2,6,6-tetramethylpiperidin-4-yl)amino)pyridazin-3-yl)isoquinoline-1-carbonitrile] | **** (a pIC50 value between 7.0 and 7.5 is indicated by four stars (****)) | 7.4395 | 7.3875 |
| Cc1cc2cc(O)c(-c3ccc(N(C)C4CC(C)(C)NC(C)(C)C4)nn3)cc2c(C)n1 [Compound 11, 1,3-dimethyl-7-(6-(methyl(2,2,6,6-tetramethylpiperidin-4-yl)amino)pyridazin-3-yl)isoquinolin-6-ol] | **** (a pIC50 value between 7.0 and 7.5 is indicated by four stars (****)) | 7.3875 | 7.3965 |
| CC1(C)CC(Nc2ccc(-c3ccc(-n4cccn4)cc3O)nn2)CC(C)(C)N1 [Compound 12, 5-(1H-pyrazol-1-yl)-2-(6-((2,2,6,6-tetramethylpiperidin-4-yl)amino)pyridazin-3-yl)phenol] | **** (a pIC50 value between 7.0 and 7.5 is indicated by four stars (****)) | 7.379 | 7.2825 |
| CN(c1nnc(-c2ccc(-c3cn[nH]c3)cc2O)s1)C1CC(C)(C)NC(C)(C)C1 [Compound 13, 2-(5-(methyl(2,2,6,6-tetramethylpiperidin-4-yl)amino)-1,3,4-thiadiazol-2-yl)-5-(1H-pyrazol-4-yl)phenol] | **** (a pIC50 value between 7.0 and 7.5 is indicated by four stars (****)) | 7.3545 | 7.383 |
| CN(c1ccc(-c2cc(Cl)c(-c3cn[nH]c3)cc2O)nn1)C1CC(C)(C)NC(C)(C)C1 [Compound 14, 4-chloro-2-(6-(methyl(2,2,6,6-tetramethylpiperidin-4-yl)amino)pyridazin-3-yl)-5-(1H-pyrazol-4-yl)phenol] | **** (a pIC50 value between 7.0 and 7.5 is indicated by four stars (****)) | 7.35 | 7.389 |
| Cc1ccc2cc(O)c(-c3ccc(N(C)C4CC(C)(C)NC(C)(C)C4)nn3)cc2n1 [Compound 15, 2-methyl-7-(6-(methyl(2,2,6,6-tetramethylpiperidin-4-yl)amino)pyridazin-3-yl)quinolin-6-ol] | **** (a pIC50 value between 7.0 and 7.5 is indicated by four stars (****)) | 7.349 | 7.283 |
| CN(c1nnc(-c2ccc(-c3cnn(C)c3)cc2O)s1)C1CC(C)(C)NC(C)(C)C1 [Compound 16, 2-(5-(methyl(2,2,6,6-tetramethylpiperidin-4-yl)amino)-1,3,4-thiadiazol-2-yl)-5-(1-methyl-1H-pyrazol-4-yl)phenol] | **** (a pIC50 value between 7.0 and 7.5 is indicated by four stars (****)) | 7.3285 | 7.481 |
| Cc1cnc2cc(-c3ccc(N(C)C4CC(C)(C)NC(C)(C)C4)nn3)c(O)cc2c1 [Compound 17, 3-methyl-7-(6-(methyl(2,2,6,6-tetramethylpiperidin-4-yl)amino)pyridazin-3-yl)quinolin-6-ol] | **** (a pIC50 value between 7.0 and 7.5 is indicated by four stars (****)) | 7.2895 | 7.424 |
| CN(c1ccc(-c2ccc(-n3cccn3)cc2O)nn1)C1CC(C)(C)NC(C)(C)C1 [Compound 19, 2-(6-(methyl(2,2,6,6-tetramethylpiperidin-4-yl)amino)pyridazin-3-yl)-5-(1H-pyrazol-1-yl)phenol] | **** (a pIC50 value between 7.0 and 7.5 is indicated by four stars (****)) | 7.2235 | 7.178 |
| COc1cc(-c2cnn(C)c2)cc(O)c1-c1ccc(N(C)C2CC(C)(C)NC(C)(C)C2)nn1 [Compound 20, 3-methoxy-2-(6-(methyl(2,2,6,6-tetramethylpiperidin-4-yl)amino)pyridazin-3-yl)-5-(1-methyl-1H-pyrazol-4-yl)phenol] | **** (a pIC50 value between 7.0 and 7.5 is indicated by four stars (****)) | 7.22 | 7.106 |
| CN(c1ccc(-c2cc3ccc(C(N)=O)nc3cc2O)nn1)C1CC(C)(C)NC(C)(C)C1 [Compound 21, 7-hydroxy-6-(6-(methyl(2,2,6,6-tetramethylpiperidin-4-yl)amino)pyridazin-3-yl)quinoline-2-carboxamide] | **** (a pIC50 value between 7.0 and 7.5 is indicated by four stars (****)) | 7.203 | 7.221 |
| CN(c1nnc(-c2cc(F)c(-c3cn[nH]c3)cc2Cl)s1)C1CC(C)(C)NC(C)(C)C1 [Compound 22, 5-(2-chloro-5-fluoro-4-(1H-pyrazol-4-yl)phenyl)-N-methyl-N-(2,2,6,6-tetramethylpiperidin-4-yl)-1,3,4-thiadiazol-2-amine] | **** (a pIC50 value between 7.0 and 7.5 is indicated by four stars (****)) | 7.1945 | 7.1125 |
